The structures appear in SMILES notation. Some results are limits rather than exact numbers.

This test addresses T1, AR (Homo sapiens, UniProt P10275).
T1 construct: endogenous in cells; host or cells: VCaP cells
T1 sequence (P10275 1-920): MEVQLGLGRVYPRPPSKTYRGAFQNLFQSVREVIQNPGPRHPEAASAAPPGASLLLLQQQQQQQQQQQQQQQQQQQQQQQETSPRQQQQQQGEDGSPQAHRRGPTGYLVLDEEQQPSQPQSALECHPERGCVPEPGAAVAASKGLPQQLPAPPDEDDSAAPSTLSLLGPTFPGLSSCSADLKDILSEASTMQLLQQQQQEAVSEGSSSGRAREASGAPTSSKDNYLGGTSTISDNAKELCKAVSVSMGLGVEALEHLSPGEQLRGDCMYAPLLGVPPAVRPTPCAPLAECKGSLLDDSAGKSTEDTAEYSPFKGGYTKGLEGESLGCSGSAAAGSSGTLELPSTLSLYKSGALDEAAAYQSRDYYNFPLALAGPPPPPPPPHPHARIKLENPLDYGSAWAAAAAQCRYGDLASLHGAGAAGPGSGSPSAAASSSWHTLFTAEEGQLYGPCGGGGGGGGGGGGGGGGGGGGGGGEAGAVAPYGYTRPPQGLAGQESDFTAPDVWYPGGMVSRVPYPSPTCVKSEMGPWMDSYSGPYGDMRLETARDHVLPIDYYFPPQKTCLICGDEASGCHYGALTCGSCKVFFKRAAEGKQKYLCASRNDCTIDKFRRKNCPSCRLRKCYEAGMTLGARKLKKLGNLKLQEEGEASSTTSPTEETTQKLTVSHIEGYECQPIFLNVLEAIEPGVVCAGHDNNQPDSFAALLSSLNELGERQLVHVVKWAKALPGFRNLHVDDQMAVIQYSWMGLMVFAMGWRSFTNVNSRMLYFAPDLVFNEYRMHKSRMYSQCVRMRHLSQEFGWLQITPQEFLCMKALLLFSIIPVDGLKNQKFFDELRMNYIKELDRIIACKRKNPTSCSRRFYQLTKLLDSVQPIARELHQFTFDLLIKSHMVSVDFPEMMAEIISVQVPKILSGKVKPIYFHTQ
The test is described as follows: VCAP AR Degradation Assay. It is filed as cell-based. To be noted: for Y (AR degradation efficiency, % of DMSO control): class symbols *; for DC50: class symbols A-C, read-out: DC50. The method, boiled down:
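Compounds were plated as 10-point 1:3 series reaching 5 μM final, then VCaP cells were seeded onto them and incubated 24 h at 37 °C. Cells were lysed cold, and total AR was measured by sandwich ELISA relative to 0.1% DMSO wells.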

A word on the DC50: it is the concentration at which degradation of the target reaches its halfway point. As for `C[C@@H]1CN(CCOc2ccc(N3C(=S)N(c4cnc(C#N)c(C(F)(F)F)c4)C(=O)C34CCC4)cc2C2CC2)C[C@H](C)N1CC(=O)Nc1cc(Cl)cc(NC2CCC(=O)NC2=O)c1` (stereo partly drawn) [Example 215, N-(3-chloro-5-(2,6-dioxopiperidin-3-ylamino)phenyl)-2-((2S,6R)-4-(2-(4-(7-(6-cyano-5-(trifluoromethyl)pyridin-3-yl)-8-oxo-6-thioxo-5,7-diazaspiro[3.4]octan-5-yl)-2-cyclopropylphenoxy)ethyl)-2,6-dimethylpiperazin-1-yl)acetamide], the “Y (AR degradation efficiency, % of DMSO control)” value is given as “* (0<Y<=25%)” and the DC50 is less than 0.1 µM.

Regarding `CCc1cc(N2C(=S)N(c3ccc(C#N)c(C(F)(F)F)c3)C(=O)C2(C)C)cnc1OCCN1C[C@@H](C)N(CC(=O)Nc2cccc(NC3CCC(=O)NC3=O)c2)[C@@H](C)C1` (stereo partly drawn) [Example 216, 2-((2R,6S)-4-(2-(5-(3-(4-cyano-3-(trifluoromethyl)phenyl)-5,5-dimethyl-4-oxo-2-thioxoimidazolidin-1-yl)-3-ethylpyridin-2-yloxy)ethyl)-2,6-dimethylpiperazin-1-yl)-N-(3-(2,6-dioxopiperidin-3-ylamino)phenyl)acetamide], the “Y (AR degradation efficiency, % of DMSO control)” value is “** (25%<Y<=35%)” and the DC50 was less than 0.1 µM.

For `CC(C)c1cc(N2C(=S)N(c3ccc(C#N)c(C(F)(F)F)c3)C(=O)C2(C)C)ccc1OCCN1C[C@@H](C)N(CC(=O)Nc2cc(NC3CCC(=O)NC3=O)ccc2F)[C@@H](C)C1` (stereo partly drawn) [Example 217, 2-((2S,6R)-4-(2-(4-(3-(4-cyano-3-(trifluoromethyl)phenyl)-5,5-dimethyl-4-oxo-2-thioxoimidazolidin-1-yl)-2-isopropylphenoxy)ethyl)-2,6-dimethylpiperazin-1-yl)-N-(5-(2,6-dioxopiperidin-3-ylamino)-2-fluorophenyl)acetamide], the “Y (AR degradation efficiency, % of DMSO control)” value was “* (0<Y<=25%)” and the DC50 lay in the range of 0.5 to 1 µM.

For the compound `C[C@@H]1CN(CCOc2ccc(N3C(=S)N(c4cnc(C#N)c(C(F)(F)F)c4)C(=O)C34CCC4)cc2C2CC2)C[C@H](C)N1CC(=O)Nc1cc(F)cc(NC2CCC(=O)NC2=O)c1` (stereo partly drawn) [Example 218, 2-((2S,6R)-4-(2-(4-(7-(6-cyano-5-(trifluoromethyl)pyridin-3-yl)-8-oxo-6-thioxo-5,7-diazaspiro[3.4]octan-5-yl)-2-cyclopropylphenoxy)ethyl)-2,6-dimethylpiperazin-1-yl)-N-(3-(2,6-dioxopiperidin-3-ylamino)-5-fluorophenyl)acetamide], the “Y (AR degradation efficiency, % of DMSO control)” value is recorded as “* (0<Y<=25%)” and the DC50 is less than 0.1 µM.

With `C[C@@H]1CN(CCOc2ccc(N3C(=S)N(c4ccc(C#N)c(Cl)c4)C(=O)C3(C)C)cc2C2CC2)C[C@H](C)N1CC(=O)Nc1cc(C#N)cc(NC2CCC(=O)NC2=O)c1` (stereo partly drawn) [Example 219, 2-((2S,6R)-4-(2-(4-(3-(3-chloro-4-cyanophenyl)-5,5-dimethyl-4-oxo-2-thioxoimidazolidin-1-yl)-2-cyclopropylphenoxy)ethyl)-2,6-dimethylpiperazin-1-yl)-N-(3-cyano-5-(2,6-dioxopiperidin-3-ylamino)phenyl)acetamide], the “Y (AR degradation efficiency, % of DMSO control)” value is “** (25%<Y<=35%)” and the 50% degradation concentration (DC50) was less than 0.1 µM.

For `C[C@@H]1CN(CCOc2ccc(N3C(=S)N(c4ccc(C#N)c(Cl)c4)C(=O)C3(C)C)cc2C2CC2)C[C@H](C)N1CC(=O)Nc1cc(Cl)cc(NC2CCC(=O)NC2=O)c1` (stereo partly drawn) [Example 220, 2-((2S,6R)-4-(2-(4-(3-(3-chloro-4-cyanophenyl)-5,5-dimethyl-4-oxo-2-thioxoimidazolidin-1-yl)-2-cyclopropylphenoxy)ethyl)-2,6-dimethylpiperazin-1-yl)-N-(3-chloro-5-(2,6-dioxopiperidin-3-ylamino)phenyl)acetamide], the “Y (AR degradation efficiency, % of DMSO control)” value is listed as “** (25%<Y<=35%)” and the half-maximal degradation concentration (DC50) is less than 0.1 µM.

`C[C@@H]1CN(CCOc2ccc(N3C(=S)N(c4ccc(C#N)c(Cl)c4)C(=O)C3(C)C)cc2C2CC2)C[C@H](C)N1CC(=O)Nc1cc(NC2CCC(=O)NC2=O)ccc1F` (stereo partly drawn) [Example 221, 2-((2S,6R)-4-(2-(4-(3-(3-chloro-4-cyanophenyl)-5,5-dimethyl-4-oxo-2-thioxoimidazolidin-1-yl)-2-cyclopropylphenoxy)ethyl)-2,6-dimethylpiperazin-1-yl)-N-(5-(2,6-dioxopiperidin-3-ylamino)-2-fluorophenyl)acetamide]: the “Y (AR degradation efficiency, % of DMSO control)” value is on record as “** (25%<Y<=35%)” and the DC50 is less than 0.1 µM.

As to `CC(C)c1cc(N2C(=S)N(c3ccc(C#N)c(Cl)c3)C(=O)C2(C)C)ccc1OCCN1C[C@@H](C)N(CC(=O)Nc2cc(NC3CCC(=O)NC3=O)ccc2F)[C@@H](C)C1` (stereo partly drawn) [Example 222, 2-((2S,6R)-4-(2-(4-(3-(3-chloro-4-cyanophenyl)-5,5-dimethyl-4-oxo-2-thioxoimidazolidin-1-yl)-2-isopropylphenoxy)ethyl)-2,6-dimethylpiperazin-1-yl)-N-(5-(2,6-dioxopiperidin-3-ylamino)-2-fluorophenyl)acetamide], the “Y (AR degradation efficiency, % of DMSO control)” value is on record as “* (0<Y<=25%)” and the DC50 is 0.1 to 0.5 µM.

On to `CC(C)c1cc(N2C(=S)N(c3ccc(C#N)c(Cl)c3)C(=O)C2(C)C)ccc1OCCN1C[C@@H](C)N(CC(=O)Nc2cc(Cl)cc(NC3CCC(=O)NC3=O)c2)[C@@H](C)C1` (stereo partly drawn) [Example 223, 2-((2S,6R)-4-(2-(4-(3-(3-chloro-4-cyanophenyl)-5,5-dimethyl-4-oxo-2-thioxoimidazolidin-1-yl)-2-isopropylphenoxy)ethyl)-2,6-dimethylpiperazin-1-yl)-N-(3-chloro-5-(2,6-dioxopiperidin-3-ylamino)phenyl)acetamide], for which the “Y (AR degradation efficiency, % of DMSO control)” value is recorded as “** (25%<Y<=35%)” and the DC50 was 0.1 to 0.5 µM.

As to `CC(C)c1cc(N2C(=S)N(c3ccc(C#N)c(C(F)(F)F)c3)C(=O)C2(C)C)cnc1OCCN1C[C@@H](C)N(CC(=O)Nc2cccc(NC3CCC(=O)NC3=O)c2)[C@@H](C)C1` (stereo partly drawn) [Example 224, 2-((2R,6S)-4-(2-(5-(3-(4-cyano-3-(trifluoromethyl)phenyl)-5,5-dimethyl-4-oxo-2-thioxoimidazolidin-1-yl)-3-isopropylpyridin-2-yloxy)ethyl)-2,6-dimethylpiperazin-1-yl)-N-(3-(2,6-dioxopiperidin-3-ylamino)phenyl)acetamide], the “Y (AR degradation efficiency, % of DMSO control)” value is given as “** (25%<Y<=35%)” and the DC50 was in the range of 0.1 to 0.5 µM.

As to `C[C@@H]1CN(CCOc2ccc(N3C(=S)N(c4ccc(C#N)c(C(F)(F)F)c4)C(=O)C34CCC4)cc2C2CC2)C[C@H](C)N1CC(=O)Nc1cccc(NC2CCC(=O)NC2=O)c1` (stereo partly drawn) [Example 225, 2-((2R,6S)-4-(2-(4-(7-(4-cyano-3-(trifluoromethyl)phenyl)-8-oxo-6-thioxo-5,7-diazaspiro[3.4]octan-5-yl)-2-cyclopropylphenoxy)ethyl)-2,6-dimethylpiperazin-1-yl)-N-(3-(2,6-dioxopiperidin-3-ylamino)phenyl)acetamide], the “Y (AR degradation efficiency, % of DMSO control)” value was “* (0<Y<=25%)” and the DC50 was less than 0.1 µM.

For the compound `C[C@@H]1CN(CCOc2ccc(N3C(=S)N(c4ccc(C#N)c(Cl)c4)C(=O)C3(C)C)cc2C2CC2)C[C@H](C)N1CC(=O)Nc1cc(F)cc(NC2CCC(=O)NC2=O)c1` (stereo partly drawn) [Example 226, 2-((2S,6R)-4-(2-(4-(3-(3-chloro-4-cyanophenyl)-5,5-dimethyl-4-oxo-2-thioxoimidazolidin-1-yl)-2-cyclopropylphenoxy)ethyl)-2,6-dimethylpiperazin-1-yl)-N-(3-(2,6-dioxopiperidin-3-ylamino)-5-fluorophenyl)acetamide], the “Y (AR degradation efficiency, % of DMSO control)” value is “* (0<Y<=25%)” and the DC50 is less than 0.1 µM.

With `CC(C)c1cc(N2C(=S)N(c3ccc(C#N)c(C(F)(F)F)c3)C(=O)C23CCC3)cnc1OCCN1C[C@@H](C)N(CC(=O)Nc2cccc(NC3CCC(=O)NC3=O)c2)[C@@H](C)C1` (stereo partly drawn) [Example 227, 2-((2S,6R)-4-(2-(5-(7-(4-cyano-3-(trifluoromethyl)phenyl)-8-oxo-6-thioxo-5,7-diazaspiro[3.4]octan-5-yl)-3-isopropylpyridin-2-yloxy)ethyl)-2,6-dimethylpiperazin-1-yl)-N-(3-(2,6-dioxopiperidin-3-ylamino)phenyl)acetamide], the “Y (AR degradation efficiency, % of DMSO control)” value is on record as “* (0<Y<=25%)” and the DC50 was less than 0.1 µM.
